Counter-ions that a name gives are not always drawn.
The compounds below were run against PDE4D7 (Homo sapiens (Human), UniProt Q08499). Settings: not given.
Chain of PDE4D7 (Q08499 other isoform, or with tags, fused parts or gaps): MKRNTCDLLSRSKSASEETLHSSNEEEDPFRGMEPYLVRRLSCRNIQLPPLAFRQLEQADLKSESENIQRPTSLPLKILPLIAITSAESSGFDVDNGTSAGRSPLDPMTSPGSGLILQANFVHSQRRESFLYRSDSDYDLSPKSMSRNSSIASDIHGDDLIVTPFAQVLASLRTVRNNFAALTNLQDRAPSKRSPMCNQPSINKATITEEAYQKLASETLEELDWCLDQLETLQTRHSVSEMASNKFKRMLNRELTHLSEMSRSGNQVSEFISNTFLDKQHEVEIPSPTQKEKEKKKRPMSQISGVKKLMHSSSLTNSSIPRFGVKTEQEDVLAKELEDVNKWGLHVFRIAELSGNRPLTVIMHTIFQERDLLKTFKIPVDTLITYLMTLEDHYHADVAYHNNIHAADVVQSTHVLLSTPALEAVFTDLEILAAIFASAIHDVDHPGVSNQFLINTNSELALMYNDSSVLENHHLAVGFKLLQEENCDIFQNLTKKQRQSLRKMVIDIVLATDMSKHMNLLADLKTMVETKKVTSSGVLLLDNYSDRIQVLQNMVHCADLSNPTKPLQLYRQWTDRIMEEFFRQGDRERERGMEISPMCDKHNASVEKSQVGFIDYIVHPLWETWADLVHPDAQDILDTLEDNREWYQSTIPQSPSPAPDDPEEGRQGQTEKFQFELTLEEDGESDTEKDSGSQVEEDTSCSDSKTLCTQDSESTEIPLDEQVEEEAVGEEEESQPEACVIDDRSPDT

IC50 [nM]	SMILES
> 1000	COC(=O)Cc1ccc(Cc2cc(C3CC3)nc(-c3cccc(Cl)c3)n2)cc1 [Example 208, Methyl 2-(4-((2-(3-chlorophenyl)-6-cyclopropylpyrimidin-4-yl)methyl)phenyl)acetate]

Same assay, conditions: read-out: PDE4D7 IC50; PDE4D7 without asterisk

IC50 [nM]	SMILES
< 1000	OCCc1ccc(Nc2cc(C3CC3)nc(-c3cccc(Cl)c3)n2)cc1 [Example 206, 2-(4-((2-(3-Chlorophenyl)-6-cyclopropylpyrimidin-4-yl)amino)phenyl)ethanol]
< 1000	NC(=O)Cc1ccc(Nc2cc(C3CC3)nc(-c3cccc(Cl)c3)n2)cc1 [Example 207, 2-(4-((2-(3-Chlorophenyl)-6-cyclopropylpyrimidin-4-yl)amino)phenyl)acetamide]
> 1000	NC(=O)Cc1ccc(Cc2cc(C3CC3)nc(-c3cccc(Cl)c3)n2)cc1 [Example 209, 2-(4-((2-(3-chlorophenyl)-6-cyclopropylpyrimidin-4-yl)methyl)phenyl)acetamide]
> 1000	NC(=O)Cc1ccc(Nc2cc(C3CC3)nc(-c3cccc(Cl)c3)n2)nc1 [Example 212, 2-(6-((2-(3-Chlorophenyl)-6-cyclopropylpyrimidin-4-yl)amino)pyridin-3-yl)acetamide]
> 1000	OCCc1ccc(Nc2cc(C3CC3)nc(-c3cccc(Cl)c3)n2)nc1 [Example 214]
< 1000	CCc1cc(Nc2ccc(CC(N)=O)cc2)nc(C2CCCC2)n1 [Example 221, 2-(4-((2-Cyclopentyl-6-ethylpyrimidin-4-yl)amino)phenyl)acetamide]
> 1000	CCc1cc(Cc2ccc(CC(=O)OC)cc2)nc(C2CCCC2)n1 [Example 223, Methyl 2-(4-((2-cyclopentyl-6-ethylpyrimidin-4-yl)methyl)phenyl)acetate]
> 1000	CCc1cc(Cc2ccc(CC(=O)O)cc2)nc(C2CCCC2)n1 [Example 224, 2-(4-((2-Cyclopentyl-6-ethylpyrimidin-4-yl)methyl)phenyl)acetic acid]
> 1000	CCc1cc(Cc2ccc(CCO)cc2)nc(C2CCCC2)n1 [Example 225, 2-(4-((2-Cyclopentyl-6-ethylpyrimidin-4-yl)methyl)phenyl)ethanol]
< 1000	NC(=O)Cc1ccc(Nc2cc(C(F)(F)F)nc(C3CCCC3)n2)cc1 [Example 228, 2-(4-((2-Cyclopentyl-6-(trifluoromethyl)pyrimidin-4-yl)amino)phenyl)acetamide]
> 1000	O=C(O)Cc1ccc(Cc2cc(C(F)(F)F)nc(C3CCCC3)n2)cc1 [Example 229, 2-(4-((2-Cyclopentyl-6-(trifluoromethyl)pyrimidin-4-yl)methyl)phenyl)acetic acid]
> 1000	NC(=O)Cc1ccc(Cc2cc(C(F)(F)F)nc(C3CCCC3)n2)cc1 [Example 230, 2-(4-((2-Cyclopentyl-6-(trifluoromethyl)pyrimidin-4-yl)methyl)phenyl)acetamide]
> 1000	OCCc1ccc(Cc2cc(C(F)(F)F)nc(C3CCCC3)n2)cc1 [Example 231, 2-(4-((2-Cyclopentyl-6-(trifluoromethyl)pyrimidin-4-yl)methyl)phenyl)ethanol]
< 1000	NC(=O)Cc1ccc(Nc2nc(-c3cccc(Cl)c3)nc3c2CCCC3)cc1 [Example 234, 2-(4-((2-(3-Chlorophenyl)-5,6,7,8-tetrahydroquinazolin-4-yl)amino)phenyl)acetamide]
< 1000	OCCc1ccc(Nc2nc(-c3cccc(Cl)c3)nc3c2CCCC3)cc1 [Example 235, 2-(4-((2-(3-Chlorophenyl)-5,6,7,8-tetrahydroquinazolin-4-yl)amino)phenyl)ethanol]
> 1000	NC(=O)Cc1ccc(Nc2cc(N3CCCC3)nc3c2CCC3)cc1 [Example 236, 2-(4-((2-(Pyrrolidin-1-yl)-6,7-dihydro-5H-cyclopenta[b]pyridin-4-yl)amino)phenyl)acetamide hydrochloride]
> 1000	COC(=O)Cc1ccc(Nc2cc(N3CCCC3)nc3c2CCC3)cc1 [Example 237, Methyl 2-(4-((2-(pyrrolidin-1-yl)-6,7-dihydro-5H-cyclopenta[b]pyridin-4-yl)amino)phenyl)acetate hydrochloride]
> 1000	NC(=O)Cc1ccc(Nc2cc(-c3ccco3)nc3c2CCC3)cc1 [Example 240, 2-(4-((2-(Furan-2-yl)-6,7-dihydro-5H-cyclopenta[b]pyridin-4-yl)amino)phenyl)acetamide hydrochloride]
> 1000	OCCc1ccc(Nc2cc(-c3ncco3)nc3c2CCC3)cc1 [Example 241, 2-(4-((2-(Oxazol-2-yl)-6,7-dihydro-5H-cyclopenta[b]pyridin-4-yl)amino)phenyl)ethanol]
> 1000	NC(=O)Cc1ccc(Nc2cc(C3=CCCC3)nc3c2CCC3)cc1 [Example 246, 2-(4-((2-(Cyclopent-1-en-1-yl)-6,7-dihydro-5H-cyclopenta[b]pyridin-4-yl)amino)phenyl)acetamide hydrochloride]
> 1000	OCCc1ccc(Nc2cc(C3CCCC3)nc3c2CCC3)cc1 [Example 249, 2-(4-((2-cyclopentyl-6,7-dihydro-5H-cyclopenta[b]pyridin-4-yl)amino)phenyl)ethanol hydrochloride]

Continued, compound first:

SMILES	IC50 [nM]
OCCc1ccc(Cc2cc(C3CC3)nc(-c3cccc(Cl)c3)n2)cc1 [Example 210, 2-(4-((2-(3-Chlorophenyl)-6-cyclopropylpyrimidin-4-yl)methyl)phenyl)ethanol]	> 1000
CCOC(=O)Cc1ccc(Nc2cc(C3CC3)nc(-c3cccc(Cl)c3)n2)nc1 [Example 211, Ethyl 2-(6-((2-(3-chlorophenyl)-6-cyclopropylpyrimidin-4-yl)amino)pyridin-3-yl)acetate]	> 1000
O=C(O)Cc1ccc(Nc2cc(C3CC3)nc(-c3cccc(Cl)c3)n2)nc1 [Example 213, 2-(6-((2-(3-Chlorophenyl)-6-cyclopropylpyrimidin-4-yl)amino)pyridin-3-yl)acetic acid]	> 1000
O=C(Cc1ccc(Nc2cc(C3CC3)nc(-c3cccc(Cl)c3)n2)nc1)NCCO [Example 215, 2-(6-((2-(3-Chlorophenyl)-6-cyclopropylpyrimidin-4-yl)amino)pyridin-3-yl)-N-(2-hydroxyethyl)acetamide]	< 1000
NC(=O)Cc1ccc(Nc2nc(C3CCCC3)nc3c2CCC3)cc1 [Example 216, 2-(4-((2-Cyclopentyl-6,7-dihydro-5H-cyclopenta[d]pyrimidin-4-yl)amino)phenyl)acetamide]	< 1000
OCCc1ccc(Nc2nc(C3CCCC3)nc3c2CCC3)cc1 [Example 217, 2-(4-((2-Cyclopentyl-6,7-dihydro-5H-cyclopenta[d]pyrimidin-4-yl)amino)phenyl)ethanol]	> 1000
FC(F)(F)c1cc(Cc2ccc(Cn3cc(Cl)cn3)cc2)nc(-c2cccc(Cl)c2)n1 [Example 218, 4-(4-((4-Chloro-1H-pyrazol-1-yl)methyl)benzyl)-2-(3-chlorophenyl)-6-(trifluoromethyl)pyrimidine]	> 1000
OCCc1ccc(Nc2cc(C(F)(F)F)nc(-c3cccc(Cl)c3)n2)cc1 [Example 219, 2-(4-((2-(3-Chlorophenyl)-6-(trifluoromethyl)pyrimidin-4-yl)amino)phenyl)ethanol]	> 1000
NC(=O)Cc1ccc(Nc2cc(C(F)(F)F)nc(-c3cccc(Cl)c3)n2)cc1 [Example 220, 2-(4-((2-(3-Chlorophenyl)-6-(trifluoromethyl)pyrimidin-4-yl)amino)phenyl)acetamide]	< 1000
CCc1cc(Nc2ccc(CCO)cc2)nc(C2CCCC2)n1 [Example 222, 2-(4-((2-Cyclopentyl-6-ethylpyrimidin-4-yl)amino)phenyl)ethanol]	< 1000
CCc1cc(Cc2ccc(CC(N)=O)cc2)nc(C2CCCC2)n1 [Example 226, 2-(4-((2-Cyclopentyl-6-ethylpyrimidin-4-yl)methyl)phenyl)acetamide]	< 1000
OCCc1ccc(Nc2cc(C(F)(F)F)nc(C3CCCC3)n2)cc1 [Example 227, 2-(4-((2-Cyclopentyl-6-(trifluoromethyl)pyrimidin-4-yl)amino)phenyl)ethanol]	< 1000
NC(=O)Cc1ccc(Nc2nc(OC3CCCC3)nc3c2CCC3)cc1 [Example 232, 2-(4-((2-(Cyclopentyloxy)-6,7-dihydro-5H-cyclopenta[d]pyrimidin-4-yl)amino)phenyl)acetamide]	> 1000
OCCc1ccc(Nc2nc(OC3CCCC3)nc3c2CCC3)cc1 [Example 233, 2 2-(4-((2-(Cyclopentyloxy)-6,7-dihydro-5H-cyclopenta[d]pyrimidin-4-yl)amino)phenyl)ethanol]	> 1000
OCCc1ccc(Nc2cc(N3CCNCC3)nc3c2CCC3)cc1 [Example 238, 2-(4-((2-(Piperazin-1-yl)-6,7-dihydro-5H-cyclopenta[b]pyridin-4-yl)amino)phenyl)ethanol hydrochloride]	> 1000
OCCc1ccc(Nc2cc(-c3ccco3)nc3c2CCC3)cc1 [Example 239, 2-(4-((2-(furan-2-yl)-6,7-dihydro-5H-cyclopenta[b]pyridin-4-yl)amino)phenyl)ethanol hydrochloride]	> 1000
NC(=O)Cc1ccc(Nc2cc(-c3ncco3)nc3c2CCC3)cc1 [Example 242, 2-(4-((2-(Oxazol-2-yl)-6,7-dihydro-5H-cyclopenta[b]pyridin-4-yl)amino)phenyl)acetamide]	> 1000
OCCc1ccc(Nc2cc(-c3ccsc3)nc3c2CCC3)cc1 [Example 243, 2 2-(4-((2-(Thiophen-3-yl)-6,7-dihydro-5H-cyclopenta[b]pyridin-4-yl)amino)phenyl)ethanol]	> 1000
NC(=O)Cc1ccc(Nc2cc(-c3ccsc3)nc3c2CCC3)cc1 [Example 244, 2-(4-((2-(Thiophen-3-yl)-6,7-dihydro-5H-cyclopenta[b]pyridin-4-yl)amino)phenyl)acetamide]	> 1000
NC(=O)Cc1ccc(Nc2cc(-c3ccc(Cl)s3)nc3c2CCC3)cc1 [Example 245, 2-(4-((2-(5-Chlorothiophen-2-yl)-6,7-dihydro-5H-cyclopenta[b]pyridin-4-yl)amino)phenyl)acetamide hydrochloride]	> 1000
OCCc1ccc(Nc2cc(C3=CCCC3)nc3c2CCC3)cc1 [Example 248, 2-(4-((2-(Cyclopent-1-en-1-yl)-6,7-dihydro-5H-cyclopenta[b]pyridin-4-yl)amino)phenyl)ethanol hydrochloride]	> 1000

— patent US11401286B2 (Tetra Discovery Partners, LLC, priority 2012, dated 2022)
